Earlier results in patent US20240415880A1, “Treatment of Breast and Other Cancers Using Zinc Chloride Instead of Radiation” (priority 2023, published 2024).

Key:
advanced melanomas = conditions: 103 consecutive advanced melanomas; zinc chloride combined with surgery
[1] = tested on: locally advanced breast cancer tumors; conditions: case presentations
[2] = tested on: cancers of the mouth, accessory nasal sinuses, larynx, parotid and other salivary glands, anal region, vulva and accessible sarcomas

[Cl-].[Cl-].[Zn+2] [zinc chloride, Zinc chloride]
improvement in cure rates over conventional surgery of melanomas (advanced melanomas): significant and statistical (p=0.003) improvement
healing of locally advanced breast cancer tumors [1]: remarkable healing
treatment outcome of cancers [2]: successfully treated
